Laboratory results as given in the supplement of paper PMC6723410.

System: GUMC-403
Test: viability at highest tested concentration (max response) relative to DMSO (% of DMSO control); higher = less cytotoxic
Settings: library / dose series: MIPE library, 11-point 1:3 dilution, 48 h
Outline: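 Viability at the highest tested concentration is given relative to vehicle control. For this, conditionally reprogrammed patient-derived GUMC-403 papilloma cells at 700/well in 1536-well plates were exposed to 23 nL of pinned compound for 48 h. Luminescence from CellTiter-Glo was read on a ViewLux and scaled between empty wells (0%) and vehicle wells (100%).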

| Structure (SMILES) | viability (top concentration 13.4 µM) | viability (top concentration 46.1 µM) |
| --- | --- | --- |
| O.O.CCN1CCN(C(=O)N[C@H](C(=O)N[C@H]2[C@@H]3SC\C(=C(/N3C2=O)C(O)=O)CSC4=NN=N[N]4C)C5=CC=C(O)C=C5)C(=O)C1=O | 130 |  |
| Cc1cc(SCc2sc(-c3ccc(C(F)(F)F)cc3)nc2C)ccc1OCC(=O)O |  | 133 |
| O=C(NC1CCOCC1)c1ccc(-c2cc(-c3c[nH]nc3-c3ccccn3)ccn2)cc1 |  | 159 |
| NCCS(=O)(=O)O |  | 123 |
| CC[C@H](CC#N)OC(=O)N[C@@H](C)c1cccc(NC(=O)Nc2ccc(-c3cnco3)c(OC)c2)c1 |  | 124 |
| CN1C(=O)/C=C(/NCCN(CCO)CCCC2=CC=C(C=C2)[N+]([O-])=O)N(C)C1=O |  | 94.3 |
| O=c1[nH]c(=O)n([C@H]2C[C@H](O)[C@@H](CO)O2)cc1/C=C/Br |  | 116 |
| CCOc1cc(N2CCC(O)CC2)ccc1Nc1ncc2c(n1)N(C)c1ccccc1C(=O)N2C |  | 89.8 |
| O=C(/C=C/C=C/c1ccc2c(c1)OCO2)N1CCCCC1 |  | 114 |
| O=c1oc2c(O)c(O)cc3c(=O)oc4c(O)c(O)cc1c4c23 |  | 143 |
| Cc1cnc(NC(=O)Nc2cc(Br)c(C)cc2OC[C@@H]2CNCCO2)cn1 |  | 110 |
| C[C@@H]1C(=O)OC2[C@H](O)[C@]34[C@H]5C[C@@H](C(C)(C)C)[C@]36[C@@H](OC(=O)[C@@H]6O)O[C@@]4(C(=O)O5)[C@]21O (stereo partly specified) |  | 108 |
| CCN(C)C(=O)Oc1cccc([C@H](C)N(C)C)c1 |  | 125 |
| COc1cc(OC)c(OC)cc1C=O |  | 107 |
| CNC1CCC(N(Cc2cccc(-c3ccncc3)c2)C(=O)c2sc3ccccc3c2Cl)CC1 (stereo unspecified) |  | 110 |
| COC(=O)Nc1nc2cc(C(=O)c3ccccc3)ccc2[nH]1 |  | 88.2 |

| Structure (SMILES) | viability (top concentration 13.4 µM) | viability (top concentration 46.1 µM) |
| --- | --- | --- |
| CCc1nc(N)nc(N)c1-c1ccc(Cl)cc1 |  | 97.1 |
| CC(C)(C)[C@]1(O)C[C@@H]2OC(=O)C[C@@]23C(=O)O[C@@H]2OC(=O)[C@H](O)C213 (stereo partly specified) |  | 99.4 |
| c1ccc2c(CCNc3ccc(Nc4ccncc4)cc3)c[nH]c2c1 |  | 108 |
| Cn1ccc2cc3c(cc21)CCN3C(=O)Nc1cccnc1 |  | 126 |
| O=C(CCc1ccc(O)cc1)c1c(O)cc(O)cc1O[C@@H]1O[C@H](CO)[C@@H](O)[C@H](O)[C@H]1O |  | 98.5 |
| COc1ccc2c(c1)CC[C@@H](CN(C)CC(=O)O)[C@H]2c1ccccc1 |  | 78.3 |
| Cc1cc(NC(=O)Nc2ccc(N(C)C)cc2)c2cc(F)cc(F)c2n1 |  | 124 |
| CC(C)OC(=O)C(C)(C)Oc1ccc(C(=O)c2ccc(Cl)cc2)cc1 |  | 117 |
| CCCN[C@H]1CCc2nc(N)sc2C1 |  | 142 |
| CCC[C@H](Nc1nc(-c2ccc(NC(=O)NCC)c(OC)c2)ncc1C)c1cccnc1 |  | 94 |
| C#CCC(Cc1cnc2nc(N)nc(N)c2n1)c1ccc(C(=O)N[C@@H](CCC(=O)O)C(=O)O)cc1 (stereo partly specified) |  | 95.2 |
| CN1CCCN=C1/C=C/c1cccs1.O=C(O)c1cc2ccccc2c(Cc2c(O)c(C(=O)O)cc3ccccc23)c1O |  | 79.8 |
| C=CC(=O)N1CCC[C@@H](n2nc(-c3ccc(Oc4ccccc4)cc3)c3c(N)ncnc32)C1 |  | 83.3 |
| COc1cc2c(Oc3ccc4[nH]c(C)cc4c3F)ncnc2cc1OCCCN1CCCC1 |  | 64.4 |
| CC1COC2(CCN(CC2)C/3=N/C(=O)C4=CC(=CC(=C4S3)[N+]([O-])=O)C(F)(F)F)O1 (stereo unspecified) |  | 122 |
